Data published in the supplement of paper PMC10307832.

What was measured:
Assay in all cases: relative viability (nuclei count vs DMSO), 5 days (fraction); higher = more cells survive
BI-D1870 + Luminespib = compound: CC(C)CCN1c2nc(Nc3cc(F)c(O)c(F)c3)ncc2N(C)C(=O)C1C [BI-D1870] + CCNC(=O)c1noc(-c2cc(C(C)C)c(O)cc2O)c1-c1ccc(CN2CCOCC2)cc1 [Luminespib] (partner 0.01 µM)
Procedure, shortened: (§1)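 A single step with final 0.05% Triton X-100, 1% formaldehyde and 1 ug/ml Hoechst fixed the cells and stained nuclei 5 days after treatment. Lung cancer cell lines in 1536-well plates had been treated by pin tool the day after seeding with one drug alone or a fixed anchor-drug dose plus five library-drug doses (not always all listed) in √10 steps, and nuclei were counted on 4× images. Relative viability is the ratio of nuclei in treated wells to nuclei in vehicle wells, taken as the median of duplicate plates.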

BI-D1870 + Pictilisib = compound: CC(C)CCN1c2nc(Nc3cc(F)c(O)c(F)c3)ncc2N(C)C(=O)C1C [BI-D1870] + CS(=O)(=O)N1CCN(Cc2cc3nc(-c4cccc5[nH]ncc45)nc(N4CCOCC4)c3s2)CC1 [Pictilisib] (partner 1 µM)
Procedure, shortened: as §1

Zebularine + OSI-027 = compound: O=c1ncccn1[C@@H]1O[C@H](CO)[C@@H](O)[C@H]1O [Zebularine] + COc1cccc2cc(-c3nc([C@H]4CC[C@H](C(=O)O)CC4)n4ncnc(N)c34)[nH]c12 [OSI-027] (partner 0.5 µM)
Procedure, shortened: as §1

Zebularine + AZD7762 = compound: O=c1ncccn1[C@@H]1O[C@H](CO)[C@@H](O)[C@H]1O [Zebularine] + NC(=O)Nc1cc(-c2cccc(F)c2)sc1C(=O)N[C@H]1CCCNC1 [AZD7762] (partner 0.2 µM)
Procedure, shortened: as §1

Row | Cell Line | relative viability (BI-D1870 + Luminespib; first compound 0.04 µM) | relative viability (BI-D1870 + Luminespib; first compound 0.1265 µM) | relative viability (BI-D1870 + Luminespib; first compound 0.4 µM) | relative viability (BI-D1870 + Luminespib; first compound 1.265 µM) | relative viability (BI-D1870 + Luminespib; first compound 4 µM) | relative viability (BI-D1870 + Pictilisib; first compound 0.04 µM) | relative viability (BI-D1870 + Pictilisib; first compound 0.1265 µM) | relative viability (BI-D1870 + Pictilisib; first compound 0.4 µM) | relative viability (BI-D1870 + Pictilisib; first compound 1.265 µM) | relative viability (BI-D1870 + Pictilisib; first compound 4 µM) | relative viability (Zebularine + OSI-027; first compound 1 µM) | relative viability (Zebularine + OSI-027; first compound 3.162 µM) | relative viability (Zebularine + OSI-027; first compound 10 µM) | relative viability (Zebularine + OSI-027; first compound 31.62 µM) | relative viability (Zebularine + OSI-027; first compound 100 µM) | relative viability (Zebularine + AZD7762; first compound 1 µM) | relative viability (Zebularine + AZD7762; first compound 3.162 µM) | relative viability (Zebularine + AZD7762; first compound 10 µM) | relative viability (Zebularine + AZD7762; first compound 31.62 µM) | relative viability (Zebularine + AZD7762; first compound 100 µM)
1 | 201T | 1.1 | 1.01 | 1.06 | 1.07 | 1.12 | 0.672 | 0.624 | 0.716 | 0.684 | 0.642 | 0.602 | 0.691 | 0.517 | 0.592 | 0.378 | 0.674 | 0.594 | 0.426 | 0.691 | 0.607
2 | A549 | – | – | – | – | – | 0.725 | 0.499 | 0.369 | 0.465 | 0.0705 | – | – | – | – | – | – | – | – | – | –
3 | A-427 | 1.06 | 0.764 | 0.77 | 1.11 | 0.879 | 0.824 | 0.553 | 0.689 | 0.716 | 0.654 | 0.51 | 0.403 | 0.347 | 0.344 | 0.268 | 0.753 | 0.628 | 0.487 | 0.501 | 0.287
4 | ABC-1 | 0.581 | 0.776 | – | 0.512 | 0.371 | 0.751 | 0.673 | 0.633 | 0.744 | 0.566 | 0.522 | 0.413 | 0.401 | 0.367 | 0.443 | 0.816 | – | 0.554 | 0.538 | 0.54
5 | BEN | 0.409 | 0.358 | 0.441 | 0.356 | 0.35 | 0.56 | 0.608 | 0.566 | 0.608 | 0.507 | 0.544 | 0.29 | 0.279 | 0.24 | 0.272 | 0.808 | 0.587 | 0.504 | 0.496 | 0.296
6 | CAL-12T | 0.332 | 0.211 | 0.313 | 0.419 | 0.491 | 0.554 | 0.363 | 0.382 | 0.657 | 0.336 | 0.816 | 0.552 | 0.387 | 0.688 | 0.542 | 0.659 | 0.674 | 0.501 | 0.689 | 0.602
7 | COR-L23 | 0.812 | 0.524 | 0.587 | 0.875 | 0.504 | 1.08 | 0.695 | 0.743 | 0.732 | 0.643 | 1.07 | 0.794 | 0.383 | 0.452 | 0.236 | – | – | – | – | –
8 | COR-L 105 | 0.824 | 0.828 | 0.631 | 0.854 | 0.666 | 0.4 | 0.405 | 0.407 | 0.474 | 0.386 | 0.763 | 0.642 | 0.566 | 0.697 | 0.684 | – | – | – | – | –
9 | Calu-6 | – | – | – | – | – | 1.03 | 0.82 | 0.868 | 0.704 | 0.367 | – | – | – | – | – | – | – | – | – | –
10 | ChaGo-K-1 | 0.643 | 0.406 | 0.601 | 0.631 | 0.551 | 0.757 | 0.807 | 0.502 | 0.758 | 0.407 | 0.66 | 0.593 | 0.331 | 0.239 | 0.23 | 0.916 | 0.862 | 0.427 | 0.337 | 0.249
11 | EBC-1 | – | – | – | – | – | 0.459 | 0.451 | 0.354 | 0.363 | 0.123 | – | – | – | – | – | – | – | – | – | –
12 | EKVX | 0.836 | 0.819 | 0.879 | 0.993 | 0.792 | 0.488 | 0.388 | 0.412 | 0.453 | 0.403 | 0.679 | 0.644 | 0.617 | 0.749 | 0.695 | 0.846 | 0.816 | – | 0.593 | 0.772
13 | EMC-BAC-2 | 1.2 | 1.08 | 1.02 | 1.38 | 1.21 | 0.626 | 0.48 | 0.514 | 0.637 | 0.535 | 0.406 | 0.366 | 0.341 | 0.387 | 0.368 | 1.19 | 1.2 | 0.792 | 1.2 | 1.15
14 | EPLC-272H | 0.559 | 0.13 | 0.207 | 0.245 | 0.272 | 0.364 | 0.295 | 0.275 | 0.312 | 0.243 | 0.279 | 0.213 | 0.312 | 0.324 | 0.27 | 0.171 | – | 0.183 | 0.192 | 0.24
15 | H3255 | 0.929 | 0.887 | 0.884 | 1.09 | 0.961 | 0.505 | 0.458 | 0.451 | 0.584 | 0.497 | 0.605 | 0.522 | 0.43 | 0.689 | 0.487 | 1.08 | 0.909 | 0.744 | 0.995 | 0.904
16 | HARA | 0.939 | 0.626 | 0.671 | 0.486 | 0.666 | 0.597 | 0.314 | 0.458 | 0.518 | 0.366 | 0.367 | – | – | 0.42 | 0.245 | 0.417 | 0.31 | 0.303 | 0.371 | 0.336
